According to patent US11458189B2, “Cytoprotective drugs” (BALMES TRANSPLANTATION, priority 2017, dated 2022):
Starred links: 1 amine or outer side, 2 acyl side, 3 side chain; linkers in the order of their positions; H or OH if unused. Positions of bridges follow the written chain, without caps; N, C: chain ends. Non-standard residues stand in square brackets, D forms with d. Residues, ends and D or L forms follow the SMILES beside them. ξ: configuration not given here. *: point of attachment. pTerphenylCO(4''-OnC5H11) = CCCCCOc1ccc(-c2ccc(-c3ccc(C(=O)*)cc3)cc2)cc1; Orn(4R-OH,5R-OH) = O=C([C@H](C[C@@H](O)[C@@H](O)N[*:3])N[*:1])[*:2]; hTyr(3S-OH,4S-OH) = N[C@H](C(=O)O)[C@H](O)[C@@H](O)c1ccc(O)cc1; Pro(3S-OH,4S-Me) = C[C@H]1CN[C@H](C(=O)O)[C@H]1O; ξPro(4R-OH) = O=C(O)C1C[C@@H](O)CN1

Test system: Rat Primary Kidney Glomerular Endothelial cells
Experiment: Oxygen and glucose deprivation followed by replenishment, cell survival (calcein AM), rat glomerular endothelial cells;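 as to Survival rate (%): 100% is hypoxia control with glucose and 0% is untreated OGD control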
Assay type: cell-based
Procedure: Anidulafungin and micafungin were tested on Human Renal Glomerular Endothelial Cells (HRGEC, Innoprot P10665), on Human Renal Proximal Tubular Epithelial Cells (HRPTEpiC, Innoprot P10662), on Human Astrocytes (HA, caltag SC-1800), on Human Cardiac Microvascular Endothelial Cells (HCMEC, Caltag SC-6000), on Human Hepatic Sinusoidal Endothelial Cells (HHSEC, Caltag SC-5000), on Rat Primary Kidney Glomerular Endothelial cells (Cellbiologics, RN-6014G) and on Bovine Brain Microvascular Endothelial Cells (BBMEC, Caltag SC-B100).
In a first phase, these isolated, purified and cryopreserved cells are thawed and multiplied according to the supplier's recommendations in T75 or T175 flasks pre-coated with 2 μg of fibronectin/[…] (CORNING) for HRGEC, HCMEC, HHSEC and BBMEC, or 2 μg poly-L-lysin/cm^2 (Caltag SC-0403) for HRPTEpiC and HA, or 15 mL/flask 175 cm^2 gelatin-based solution (Cellbiologics) in the presence of endothelial cell supplemented growth medium ECM (P60104, INNOPROT, Caltag, SC-1001) for HRGEC, HCMEC, HHSEC, RPKGEC or BBMEC, or astrocyte cell supplemented growth medium AM (Caltag SC-1801) for HA or epithelial cell supplemented growth medium EpiCM (P60106, INNOPROT) for HRPTEpiC, at 37° C. under 5% CO2 and saturated humidity until their confluency. They are then harvested by trypsinization according to the method described by the supplier for exactly 5 minutes and then reseeded in new flasks a maximum of three times.
To carry out the oxygen and glucose deprivation test followed by their replenishment, the cells will be seeded in 96-well black plates with transparent flat bottom (GREINER). Once a sufficient number of cells has been obtained to allow seeding of 2000 to 15000 cells per well of 96-well plates depending on the cell type, the cells are seeded in these 96-well plates previously coated with an extracellular matrix as listed above for the flasks. The cells are cultured for 5 to 8 days according to the cell type, in the presence of the same growth medium as in the flask as described above except for HRGEC and HRPTEpiC for which DMEM (DUTSCHER) with 1 g/L of supplemented glucose is used, at 37° C. under 5% CO2 and saturated humidity to obtain confluency.
On the first day of oxygen and glucose deprivation, (5th, 6th, 7th or 8th day of culture), the culture conditions are drastically changed. The medium of all plates is removed and replaced by DMEM (DUTSCHER) medium without glucose and supplemented only with 1% penicillin-streptomycin (DUTSCHER). Anidulafungin or micafungin dissolved in dimethyl sulfoxide (DMSO) is then added to each well at the desired concentration, resulting in a maximum of 1% DMSO, and the plates are placed under hypoxia at <1% 02 and 5% CO2 at 37° C. for 24 hours of culture. Each compound was tested in a concentration range.
After 24 hours, the growth medium is changed and replaced by a richer medium, DMEM (DUTSCHER) at 1 g/L glucose and 2% FBS (INNOPROT) and 1% penicillin-streptomycin (DUTSCHER). These media will have been pre-equilibrated at 37° C. in advance. The cells are then returned to culture at 37° C. under 20% 02 and 5% CO2 for 22h.
After 22 hours of reoxygenation, the potential protective effect of anidulafungin or micafungin is measured by a cell viability test using calcein AM (CORNING), which is a dye substrate. The calcein AM can easily cross the cell membrane of the viable cells. The AM ester groups mask the part of the molecule that chelates calcium. Once inside the cells, the (non-fluorescent) calcein AM is hydrolyzed to (fluorescent) calcein by endogenous esterases. The resulting calcein molecule binds to calcium inside the cell and remains trapped inside the cell. These molecules emit strong green fluorescence when subjected to […] of a particular wavelength (495 nm). Since dead cells lack esterase activity, only living cells are labelled.
This cell viability test is performed in two steps. […]

[1] = [Anidulafungin] log μM 0.1760913
[2] = [Anidulafungin] log μM 0.4771213
[3] = [Anidulafungin] log μM 0.7781513
[4] = [Anidulafungin] log μM 0.845098
[5] = [Anidulafungin] log μM 0.9542425
[6] = [Anidulafungin] log μM −0.154902
[7] = [Anidulafungin] log μM −0.30103
[8] = [Anidulafungin] log μM −0.5228788

## CCCCCOc1ccc(-c2ccc(-c3ccc(C(=O)N[C@H]4C[C@@H](O)[C@@H](O)NC(=O)[C@@H]5[C@@H](O)[C@@H](C)CN5C(=O)[C@H]([C@@H](C)O)NC(=O)[C@H]([C@H](O)[C@@H](O)c5ccc(O)cc5)NC(=O)C5C[C@@H](O)CN5C(=O)[C@H]([C@@H](C)O)NC4=O)cc3)cc2)cc1 (stereo partly drawn) [Anidulafungin] ({pTerphenylCO(4''-OnC5H11)}-[Orn(4R-OH,5R-OH)]T[ξPro(4R-OH)][hTyr(3S-OH,4S-OH)]T[Pro(3S-OH,4S-Me)]; lactam 1-C)
[Anidulafungin] log μM 0
  Globalfluo assay 1: 2763556 arbitrary units
  Globalfluo assay 2: 3715544 arbitrary units
  Globalfluo assay 3: 3395182 arbitrary units
  Mean globalfluo: 3291427 arbitrary units
  Survival rate (%): −1%
[1]
  Globalfluo assay 1: 4125220 arbitrary units
  Globalfluo assay 2: 3558016 arbitrary units
  Globalfluo assay 3: 4929089 arbitrary units
  Mean globalfluo: 4204108 arbitrary units
  Survival rate (%): 3%
[Anidulafungin] log μM 0.30103
  Globalfluo assay 1: 6944934 arbitrary units
  Globalfluo assay 2: 4307906 arbitrary units
  Globalfluo assay 3: 5211398 arbitrary units
  Mean globalfluo: 5488079 arbitrary units
  Survival rate (%): 8%
[Anidulafungin] log μM 0.39794
  Globalfluo assay 1: 7911533 arbitrary units
  Globalfluo assay 2: 3661322 arbitrary units
  Globalfluo assay 3: 9914104 arbitrary units
  Mean globalfluo: 7162320 arbitrary units
  Survival rate (%): 15%
[2]
  Globalfluo assay 1: 5124858 arbitrary units
  Globalfluo assay 2: 4212586 arbitrary units
  Globalfluo assay 3: 3823154 arbitrary units
  Mean globalfluo: 4386866 arbitrary units
  Survival rate (%): 4%
[Anidulafungin] log μM 0.60206
  Globalfluo assay 1: 7387656 arbitrary units
  Globalfluo assay 2: 4239781 arbitrary units
  Globalfluo assay 3: 4439823 arbitrary units
  Mean globalfluo: 5355753 arbitrary units
  Survival rate (%): 7%
[Anidulafungin] log μM 0.69897
  Globalfluo assay 1: 10033620 arbitrary units
  Globalfluo assay 2: 4718363 arbitrary units
  Globalfluo assay 3: 7321110 arbitrary units
  Mean globalfluo: 7357698 arbitrary units
  Survival rate (%): 16%
[3]
  Globalfluo assay 1: 10219130 arbitrary units
  Globalfluo assay 2: 11308900 arbitrary units
  Globalfluo assay 3: 8342703 arbitrary units
  Mean globalfluo: 9956911 arbitrary units
  Survival rate (%): 26%
[4]
  Globalfluo assay 1: 10949560 arbitrary units
  Globalfluo assay 2: 9736722 arbitrary units
  Globalfluo assay 3: 8273113 arbitrary units
  Mean globalfluo: 9653132 arbitrary units
  Survival rate (%): 25%
[Anidulafungin] log μM 0.90309
  Globalfluo assay 1: 15350400 arbitrary units
  Globalfluo assay 2: 11785650 arbitrary units
  Globalfluo assay 3: 7401575 arbitrary units
  Mean globalfluo: 11512542 arbitrary units
  Survival rate (%): 32%
[5]
  Globalfluo assay 1: 9960942 arbitrary units
  Globalfluo assay 2: 10967130 arbitrary units
  Globalfluo assay 3: 15364830 arbitrary units
  Mean globalfluo: 12097634 arbitrary units
  Survival rate (%): 35%
[6]
  Globalfluo assay 1: 3628425 arbitrary units
  Globalfluo assay 2: 3463582 arbitrary units
  Globalfluo assay 3: 3208621 arbitrary units
  Mean globalfluo: 3433543 arbitrary units
  Survival rate (%): 0%
[7]
  Globalfluo assay 1: 2638281 arbitrary units
  Globalfluo assay 2: 3646882 arbitrary units
  Globalfluo assay 3: 3842217 arbitrary units
  Mean globalfluo: 3375793 arbitrary units
  Survival rate (%): −1%
[8]
  Globalfluo assay 1: 3892260 arbitrary units
  Globalfluo assay 2: 3780606 arbitrary units
  Globalfluo assay 3: 4016223 arbitrary units
  Mean globalfluo: 3896363 arbitrary units
  Survival rate (%): 2%
[Anidulafungin] log μM −1
  Globalfluo assay 1: 3282790 arbitrary units
  Globalfluo assay 2: 3299018 arbitrary units
  Globalfluo assay 3: 4299152 arbitrary units
  Mean globalfluo: 3626987 arbitrary units
  Survival rate (%): 0%
[Anidulafungin] log μM −2
  Globalfluo assay 1: 5018485 arbitrary units
  Globalfluo assay 2: 4417533 arbitrary units
  Globalfluo assay 3: 3450400 arbitrary units
  Mean globalfluo: 4295473 arbitrary units
  Survival rate (%): 3%
[Anidulafungin] log μM −3
  Globalfluo assay 1: 2824954 arbitrary units
  Globalfluo assay 2: 3274736 arbitrary units
  Globalfluo assay 3: 3773899 arbitrary units
  Mean globalfluo: 3291196 arbitrary units
  Survival rate (%): −1%
